Results: patent US11066416B2, “Rapafucin derivative compounds and methods of use thereof” (The Johns Hopkins University, priority 2016, dated 2021)

How the values were obtained:
H929 = test: Cell proliferation assay (Prolif.), H929; type: cell-based; settings: for Prolif, H929: Table 11
Method: Cell Proliferation Assay (Prolif.) Guo et al. (2018) Nat. Chem. 11:254-63. Specific cell lines are indicated in each assay and cultured in complete growth media. Activity is scored according to the IC50 values relative to DMSO control. “Low” indicates an IC50 greater than 600 nM, “Medium” indicates an IC50 between 300 nM and 600 nM “High” indicates an IC50 less than 300 nM. “Rel.Uptake” refers to uptake activity characterization relative to a single concentration assay. “Low” indicates a response greater than 0.6 times the activity relative to DMSO, “Medium” indicates a response between 0.6 and 0.3 times the activity relative to DMSO, “High” indicates a response less than 0.3 times the activity relative to DMSO.

[1] = test system: nucleoside uptake (3H-Thymidine); test: Rel.Uptake: nucleoside uptake, single concentration assay, cell line as indicated in each table; type: cell-based; settings: 293T, nucleoside uptake, response relative to DMSO
Method: Nucleoside Uptake Assay (uptake). Nuceloside uptake assays were performed with using 3H-Thymidine as described in Guo et al. (2018) Nat. Chem. 11:254-63. Specific cell lines are indicated in each assay and cultured in complete growth media. Activity is scored according to the IC50 values relative to DMSO control. “Low” indicates an IC50 greater than 600 nM, “Medium” indicates an IC50 between 300 nM and 600 nM “High” indicates an IC50 less than 300 nM. “Rel.Uptake” refers to uptake activity characterization relative to a single concentration assay. “Low” indicates a response greater than 0.6 times the activity relative to DMSO, “Medium” indicates a response between 0.6 and 0.3 times the activity relative to DMSO, “High” indicates a response less than 0.3 times the activity relative to DMSO.

| SMILES | Prolif. H929 (H929; H929 cells, IC50 class relative to DMSO control) | Rel. Prolif., NCI-H929 (H929; NCI-H929 cells, single concentration, response relative to DMSO) | Prolif, H929 (H929; H929 cells) | Rel. Uptake, 293T [1] |
| --- | --- | --- | --- | --- |
| COc1ccc(CC[C@H]2OC(=O)[C@@H]3CCCCN3C(=O)C(=O)C(C)(C)COC(=O)C=CCCN(C)C(=O)[C@@H](Cc3ccccc3)NC(=O)CN(C)C(=O)[C@@H](Cc3ccccc3)NC(=O)[C@H](Cc3ccc(OC(=O)N4CCOCC4)cc3)NC(=O)COc3cccc2c3)cc1OC [Compound 877] | low | kmv | – | – |
| COc1cc(CC[C@H]2OC(=O)[C@@H]3CCCCN3C(=O)C(=O)C(C)(C)COC(=O)C=CCCN(C)C(=O)[C@@H](Cc3ccccc3)NC(=O)CN(C)C(=O)[C@@H](Cc3ccccc3)NC(=O)[C@H](Cc3ccc(O)cc3)N(C)C(=O)COc3cccc2c3)cc(OC)c1OC [Compound 1566] | – | – | medium | medium |
| COc1cc(CC[C@H]2OC(=O)[C@@H]3CCCCN3C(=O)C(=O)C(C)(C)COC(=O)C=CCCN(C)C(=O)[C@@H](Cc3ccccc3)NC(=O)CN(C)C(=O)[C@@H](Cc3ccccc3)NC(=O)[C@H](Cc3ccc(O)cc3)N(C)C(=O)COc3cccc2c3)cc(O)c1OC [Compound 1567] | – | – | medium | medium |
| COc1cc(O)c(CC[C@H]2OC(=O)[C@@H]3CCCCN3C(=O)C(=O)C(C)(C)COC(=O)C=CCCN(C)C(=O)[C@@H](Cc3ccccc3)NC(=O)CN(C)C(=O)[C@@H](Cc3ccccc3)NC(=O)[C@H](Cc3ccc(O)cc3)N(C)C(=O)COc3cccc2c3)cc1OC [Compound 1568] | – | – | low | low |
| COc1cc(CC[C@H]2OC(=O)[C@@H]3CCCCN3C(=O)C(=O)C(C)(C)COC(=O)C=CCCN(C)C(=O)[C@@H](Cc3ccccc3)NC(=O)CN(C)C(=O)[C@@H](Cc3ccccc3)NC(=O)[C@H](Cc3ccc(O)cc3)N(C)C(=O)COc3cccc2c3)cc(F)c1OC [Compound 1569] | – | – | low | low |
| COc1cc(F)c(CC[C@H]2OC(=O)[C@@H]3CCCCN3C(=O)C(=O)C(C)(C)COC(=O)C=CCCN(C)C(=O)[C@@H](Cc3ccccc3)NC(=O)CN(C)C(=O)[C@@H](Cc3ccccc3)NC(=O)[C@H](Cc3ccc(O)cc3)N(C)C(=O)COc3cccc2c3)cc1OC [Compound 1570] | – | – | medium | medium |
| COc1ccc(CC[C@H]2OC(=O)[C@@H]3CCCCN3C(=O)C(=O)C(C)(C)COC(=O)C=CCCN(C)C(=O)[C@@H](Cc3ccccc3)NC(=O)CN(C)C(=O)[C@@H](Cc3ccccc3)NC(=O)[C@H](Cc3ccc(O)cc3)N(C)C(=O)COc3cccc2c3)c(F)c1OC [Compound 1571] | – | – | low | low |
| COc1ccc(CC[C@H]2OC(=O)[C@@H]3CN(C(=O)OCC4c5ccccc5-c5ccccc54)CCN3C(=O)C(=O)C(C)(C)COC(=O)C=CCCN(C)C(=O)[C@@H](Cc3ccccc3)NC(=O)CN(C)C(=O)[C@@H](Cc3ccccc3)NC(=O)[C@H](Cc3ccc(O)cc3)N(C)C(=O)COc3cccc2c3)cc1OC [Compound 1572] | – | – | low | low |
| COc1ccc(CC[C@H]2OC(=O)[C@@H]3CNCCN3C(=O)C(=O)C(C)(C)COC(=O)C=CCCN(C)C(=O)[C@@H](Cc3ccccc3)NC(=O)CN(C)C(=O)[C@@H](Cc3ccccc3)NC(=O)[C@H](Cc3ccc(O)cc3)N(C)C(=O)COc3cccc2c3)cc1OC [Compound 1573] | – | – | low | low |
| COc1ccc(CC[C@H]2OC(=O)[C@@H]3CN(C)CCN3C(=O)C(=O)C(C)(C)COC(=O)C=CCCN(C)C(=O)[C@@H](Cc3ccccc3)NC(=O)CN(C)C(=O)[C@@H](Cc3ccccc3)NC(=O)[C@H](Cc3ccc(O)cc3)N(C)C(=O)COc3cccc2c3)cc1OC [Compound 1574] | – | – | low | low |
| COc1ccc(CC[C@H]2OC(=O)[C@@H]3CCCCN3C(=O)C(=O)C(C)(C)COC(=O)C=CCCN(C)C(=O)[C@@H](Cc3ccccc3)NC(=O)CN(C)C(=O)[C@@H](Cc3ccccc3)NC(=O)[C@H](Cc3ccc(O)cc3)N(C)C(=O)COc3ccc(F)c2c3)cc1OC [Compound 1575] | – | – | low | low |
| COc1ccc(CC[C@H]2OC(=O)[C@@H]3CCCCN3C(=O)C(=O)C(C)(C)COC(=O)C=CCCN(C)C(=O)[C@@H](Cc3ccccc3)NC(=O)CN(C)C(=O)[C@@H](Cc3ccccc3)NC(=O)[C@H](Cc3ccc(O)cc3)N(C)C(=O)COc3cc(F)cc2c3)cc1OC [Compound 1576] | – | – | medium | medium |
| COc1ccc(CC[C@H]2OC(=O)[C@@H]3CCCCN3C(=O)C(=O)C(C)(C)COC(=O)C=CCCN(C)C(=O)[C@@H](Cc3ccccc3)NC(=O)CN(C)C(=O)[C@@H](Cc3ccccc3)NC(=O)[C@H](Cc3ccc(O)cc3)N(C)C(=O)COc3cccc2c3)c(OC)c1OC [Compound 1577] | – | – | medium | medium |
| COc1ccc(CC[C@H]2OC(=O)[C@@H]3CCCCN3C(=O)C(=O)C(C)(C)COC(=O)C=CCCN(C)C(=O)[C@@H](Cc3ccccc3)NC(=O)CN(C)C(=O)[C@@H](Cc3ccccc3)NC(=O)[C@H](Cc3ccc(O)cc3)N(C)C(=O)COc3cc2ccc3F)cc1OC [Compound 1578] | – | – | low | low |
| COc1ccc(CC[C@H]2OC(=O)[C@@H]3CCCCN3C(=O)C(=O)C(C)(C)COC(=O)C=CCCN(C)C(=O)[C@@H](Cc3ccccc3)NC(=O)CN(C)C(=O)[C@@H](Cc3ccccc3)NC(=O)[C@H](Cc3ccc(O)cc3)N(C)C(=O)COc3cccc2c3F)cc1OC [Compound 1579] | – | – | medium | medium |
| COc1ccc(CC[C@H]2OC(=O)[C@@H]3CCCCN3C(=O)C(=O)C(C)(C)COC(=O)C=CCCN(C)C(=O)[C@@H](Cc3ccccc3)NC(=O)CN(C)C(=O)[C@@H](Cc3ccccc3)NC(=O)[C@H](Cc3ccc(O)cc3)N(C)C(=O)COc3cncc2c3)cc1OC [Compound 1580] | – | – | low | low |
| COc1cc(OC)c(OC)cc1CC[C@H]1OC(=O)[C@@H]2CCCCN2C(=O)C(=O)C(C)(C)COC(=O)C=CCCN(C)C(=O)[C@@H](Cc2ccccc2)NC(=O)CN(C)C(=O)[C@@H](Cc2ccccc2)NC(=O)[C@H](Cc2ccc(O)cc2)N(C)C(=O)COc2cccc1c2 [Compound 1581] | – | – | medium | medium |
| COc1cc(CC[C@H]2OC(=O)[C@@H]3CCCCN3C(=O)C(=O)C(C)(C)COC(=O)C=CCCN(C)C(=O)[C@@H](Cc3ccccc3)NC(=O)CN(C)C(=O)[C@@H](Cc3ccccc3)NC(=O)[C@H](Cc3ccc(O)cc3)N(C)C(=O)COc3cccc2c3)c(OC)c(OC)c1 [Compound 1582] | – | – | low | low |
| COc1ccc(OC)c(OC)c1CC[C@H]1OC(=O)[C@@H]2CCCCN2C(=O)C(=O)C(C)(C)COC(=O)C=CCCN(C)C(=O)[C@@H](Cc2ccccc2)NC(=O)CN(C)C(=O)[C@@H](Cc2ccccc2)NC(=O)[C@H](Cc2ccc(O)cc2)N(C)C(=O)COc2cccc1c2 [Compound 1583] | – | – | low | low |
